Experimental findings from US11753445B2, “Therapeutic peptides” (COHBAR, INC., priority 2016, dated 2023) are described below.

Peptide text beside a SMILES is read from it.

The subject of the assay is 3T3-L1 Adipocytes. Briefly: Free fatty acid levels in cultured mouse 3T3-L1 adipocytes, isoproterenol stimulated (Example 2). In kind it is cell-based. Conditions: test peptides 25 μM; isoproterenol 1 nM. The method, boiled down: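 3T3-L1 cells differentiated 12–17 days into adipocytes, then exposed to test peptides at 25 μM final for 18–20 h, then 1 h, then 3 h with isoproterenol (1 nM) at 37 °C. Free fatty acids in the medium measured colorimetrically at 540 nm, corrected for untreated background and expressed relative to isoproterenol-only cells.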
As to `CC[C@H](C)[C@H](NC(=O)[C@H](Cc1ccc(O)cc1)NC(=O)CNC(=O)[C@H](CCSC)NC(=O)[C@H](CCC(=O)O)NC(=O)[C@H](CCC(N)=O)NC(=O)[C@H](Cc1c[nH]c2ccccc12)NC(=O)[C@H](CCCNC(=N)N)NC(=O)[C@H](CCSC)NC(C)=O)C(=O)N[C@@H](Cc1ccccc1)C(=O)N[C@@H](Cc1ccc(O)cc1)C(=O)N1CCC[C@H]1C(=O)N[C@@H](CCCNC(=N)N)C(=O)N[C@@H](CCCCN)C(=O)N[C@@H](CC(C)C)C(=O)N[C@H](C)C(N)=O` [compound 167] (HELM PEPTIDE1{[ac].M.R.W.Q.E.M.G.Y.I.F.Y.P.R.K.L.[dA].[am]}$$$$V2.0), the “Free Fatty Acid Levels in 3T3-L1 Adipocytes Expressed as a Percent of Isoproterenol Control: Percent of Control Value” was 70.9%. The same measure for H-MRWQEMGYIFYP-OH [compound 48]: 57.1%; for Ac-LRWQEMGYIFYPLRKR-NH2 [compound 109]: 76.6%; for `CC[C@H](C)[C@H](NC(=O)[C@H](Cc1ccc(O)cc1)NC(=O)CNC(=O)[C@H](CCSC)NC(=O)[C@H](CCC(=O)O)NC(=O)[C@H](CCC(N)=O)NC(=O)[C@H](Cc1c[nH]c2ccccc12)NC(=O)[C@H](CCCNC(=N)N)NC(=O)[C@H](CCSC)NC(C)=O)C(=O)N[C@@H](Cc1ccccc1)C(=O)N[C@@H](Cc1ccc(O)cc1)C(=O)N[C@H](C)C(=O)N[C@@H](CCCNC(=N)N)C(=O)N[C@@H](CCCCN)C(=O)N[C@@H](CC(C)C)C(=O)N[C@@H](CCCNC(=N)N)C(N)=O` [compound 163] (HELM PEPTIDE1{[ac].M.R.W.Q.E.M.G.Y.I.F.Y.[dA].R.K.L.R.[am]}$$$$V2.0): 91.8%. Under Ac-MRWQEMGEIFEPRKLR-NH2 [compound 135] stands 79.0%. As for Ac-MRWQEMGYIFYPRELR-NH2 [compound 195], the “Free Fatty Acid Levels in 3T3-L1 Adipocytes Expressed as a Percent of Isoproterenol Control: Percent of Control Value” stood at 58.9%. Regarding Ac-MRWQEMGYIFYPEKLR-NH2 [compound 194], the “Free Fatty Acid Levels in 3T3-L1 Adipocytes Expressed as a Percent of Isoproterenol Control: Percent of Control Value” is given as 107.2%. On to Ac-MRWQEMGYIF-NH2 [compound 64], for which the “Free Fatty Acid Levels in 3T3-L1 Adipocytes Expressed as a Percent of Isoproterenol Control: Percent of Control Value” was determined as 90.6%.

`CC[C@H](C)[C@H](NC(=O)[C@H](Cc1ccc(O)cc1)NC(=O)CNC(=O)[C@H](C)NC(=O)[C@H](CCC(=O)O)NC(=O)[C@H](CCC(N)=O)NC(=O)[C@H](Cc1c[nH]c2ccccc12)NC(=O)[C@H](CCCNC(=N)N)NC(=O)[C@@H](C)N)C(=O)N[C@@H](C)C(=O)N[C@@H](CCC(=O)O)C(=O)N1CCC[C@H]1C(=O)N[C@@H](CCCNC(=N)N)C(=O)N[C@@H](CCCCN)C(=O)N[C@@H](CC(C)C)C(=O)N[C@@H](C)C(=O)O` [compound 245] (HELM PEPTIDE1{[dA].R.W.Q.E.A.G.Y.I.A.E.P.R.K.L.A}$$$$V2.0): the “Free Fatty Acid Levels in 3T3-L1 Adipocytes Expressed as a Percent of Isoproterenol Control: Percent of Control Value” amounted to 78.1%. Under H-ERWQEAGYIAYPRKLA-OH [compound 239] stands 66.6%; under Ac-MRWQEMGYIFYPRK-NH2 [compound 60], 89.3%; under Ac-LRWQEMGYIFYPRKLR-NH2 [compound 108], 101.3%. On to `CC[C@H](C)[C@H](NC(=O)[C@H](Cc1ccc(O)cc1)NC(=O)CNC(=O)[C@H](CCSC)NC(=O)[C@H](CCC(=O)O)NC(=O)[C@@H](C)NC(=O)[C@H](Cc1c[nH]c2ccccc12)NC(=O)[C@H](CCCNC(=N)N)NC(=O)[C@@H](N)CCSC)C(=O)N[C@@H](Cc1ccccc1)C(=O)N[C@@H](Cc1ccc(O)cc1)C(=O)N1CCC[C@H]1C(=O)N[C@@H](CCCNC(=N)N)C(=O)N[C@@H](CCCCN)C(=O)N[C@@H](CC(C)C)C(=O)N[C@@H](CCCNC(=N)N)C(=O)O` [compound 139] (HELM PEPTIDE1{M.R.W.[dA].E.M.G.Y.I.F.Y.P.R.K.L.R}$$$$V2.0), for which the “Free Fatty Acid Levels in 3T3-L1 Adipocytes Expressed as a Percent of Isoproterenol Control: Percent of Control Value” was found to be 58.1%. The same measure for Ac-LKWQEMGYIFYPRKR-NH2 [compound 117]: 97.7%; for Ac-LRWQEMGYIFYPRKRL-NH2 [compound 111]: 106.0%.

For the compound `CC[C@H](C)[C@H](NC(=O)[C@H](Cc1ccc(O)cc1)NC(=O)CNC(=O)[C@H](CCSC)NC(=O)[C@H](CCC(=O)O)NC(=O)[C@H](CCC(N)=O)NC(=O)[C@H](Cc1c[nH]c2ccccc12)NC(=O)[C@@H](C)NC(=O)[C@@H](N)CCSC)C(=O)N[C@@H](Cc1ccccc1)C(=O)N[C@@H](Cc1ccc(O)cc1)C(=O)N1CCC[C@H]1C(=O)N[C@@H](CCCNC(=N)N)C(=O)N[C@@H](CCCCN)C(=O)N[C@@H](CC(C)C)C(=O)N[C@@H](CCCNC(=N)N)C(=O)O` [compound 137] (HELM PEPTIDE1{M.[dA].W.Q.E.M.G.Y.I.F.Y.P.R.K.L.R}$$$$V2.0), the “Free Fatty Acid Levels in 3T3-L1 Adipocytes Expressed as a Percent of Isoproterenol Control: Percent of Control Value” was 91.4%.

For `CC[C@H](C)[C@H](NC(=O)[C@H](Cc1ccc(O)cc1)NC(=O)CNC(=O)[C@H](C)NC(=O)[C@H](CCC(=O)O)NC(=O)[C@H](CCC(N)=O)NC(=O)[C@H](Cc1c[nH]c2ccccc12)NC(=O)[C@H](CCCNC(=N)N)NC(=O)[C@@H](N)CCC(=O)O)C(=O)N[C@@H](C)C(=O)N[C@@H](Cc1ccc(O)cc1)C(=O)N1CCC[C@H]1C(=O)N[C@@H](CCCNC(=N)N)C(=O)N[C@@H](CCCCN)C(=O)N[C@@H](CC(C)C)C(=O)N[C@H](C)C(=O)O` [compound 240] (HELM PEPTIDE1{E.R.W.Q.E.A.G.Y.I.A.Y.P.R.K.L.[dA]}$$$$V2.0), the “Free Fatty Acid Levels in 3T3-L1 Adipocytes Expressed as a Percent of Isoproterenol Control: Percent of Control Value” came out at 48.6%.

Consider `CC[C@H](C)[C@H](NC(=O)[C@H](Cc1ccc(O)cc1)NC(=O)CNC(=O)[C@H](CCSC)NC(=O)[C@H](CCC(=O)O)NC(=O)[C@H](CCC(N)=O)NC(=O)[C@H](Cc1c[nH]c2ccccc12)NC(=O)[C@H](CCCNC(=N)N)NC(=O)[C@H](CCSC)NC(C)=O)C(=O)N[C@@H](Cc1ccccc1)C(=O)N[C@H](C)C(=O)N1CCC[C@H]1C(=O)N[C@@H](CCCNC(=N)N)C(=O)N[C@@H](CCCCN)C(=O)N[C@@H](CC(C)C)C(=O)N[C@@H](CCCNC(=N)N)C(N)=O` [compound 162] (HELM PEPTIDE1{[ac].M.R.W.Q.E.M.G.Y.I.F.[dA].P.R.K.L.R.[am]}$$$$V2.0), for which the “Free Fatty Acid Levels in 3T3-L1 Adipocytes Expressed as a Percent of Isoproterenol Control: Percent of Control Value” is 82.4%. The same measure for `CC[C@H](C)[C@H](NC(=O)[C@@H](C)NC(=O)CNC(=O)[C@H](CCSC)NC(=O)[C@H](CCC(=O)O)NC(=O)[C@H](CCC(N)=O)NC(=O)[C@H](Cc1c[nH]c2ccccc12)NC(=O)[C@H](CCCNC(=N)N)NC(=O)[C@H](CCSC)NC(C)=O)C(=O)N[C@@H](Cc1ccccc1)C(=O)N[C@@H](Cc1ccc(O)cc1)C(=O)N1CCC[C@H]1C(=O)N[C@@H](CCCNC(=N)N)C(=O)N[C@@H](CCCCN)C(=O)N[C@@H](CC(C)C)C(=O)N[C@@H](CCCNC(=N)N)C(N)=O` [compound 159] (HELM PEPTIDE1{[ac].M.R.W.Q.E.M.G.[dA].I.F.Y.P.R.K.L.R.[am]}$$$$V2.0): 87.4%. The same measure for `CC[C@H](C)[C@H](NC(=O)[C@H](Cc1ccc(O)cc1)NC(=O)CNC(=O)[C@@H](C)NC(=O)[C@H](CCC(=O)O)NC(=O)[C@H](CCC(N)=O)NC(=O)[C@H](Cc1c[nH]c2ccccc12)NC(=O)[C@H](CCCNC(=N)N)NC(=O)[C@@H](N)CCSC)C(=O)N[C@@H](Cc1ccccc1)C(=O)N[C@@H](Cc1ccc(O)cc1)C(=O)N1CCC[C@H]1C(=O)N[C@@H](CCCNC(=N)N)C(=O)N[C@@H](CCCCN)C(=O)N[C@@H](CC(C)C)C(=O)N[C@@H](CCCNC(=N)N)C(=O)O` [compound 141] (HELM PEPTIDE1{M.R.W.Q.E.[dA].G.Y.I.F.Y.P.R.K.L.R}$$$$V2.0): 56.9%; for `CC[C@H](C)[C@@H]1NC(=O)[C@H](Cc2ccc(O)cc2)NC(=O)CNC(=O)[C@@H](NC(=O)[C@H](CCC(=O)O)NC(=O)[C@H](CCC(N)=O)NC(=O)[C@H](Cc2c[nH]c3ccccc23)NC(=O)[C@H](CCCNC(=N)N)NC(=O)[C@H](CCSC)NC(C)=O)CSSC[C@@H](C(=O)N[C@@H](CCCNC(=N)N)C(=O)N[C@@H](CCCCN)C(=O)N[C@@H](CC(C)C)C(=O)N[C@@H](CCCNC(=N)N)C(N)=O)NC(=O)[C@H](Cc2ccc(O)cc2)NC(=O)[C@H](Cc2ccccc2)NC1=O` [compound 225] (HELM PEPTIDE1{[ac].M.R.W.Q.E.C.G.Y.I.F.Y.C.R.K.L.R.[am]}$PEPTIDE1,PEPTIDE1,7:R3-13:R3$$$V2.0): 97.0%; for `CC[C@H](C)[C@H](NC(=O)[C@H](Cc1ccc(O)cc1)NC(=O)CNC(=O)[C@H](CCSC)NC(=O)[C@H](CCC(=O)O)NC(=O)[C@H](CCC(N)=O)NC(=O)[C@H](Cc1c[nH]c2ccccc12)NC(=O)[C@H](CCCNC(=N)N)NC(=O)[C@H](CCSC)NC(C)=O)C(=O)N[C@@H](Cc1ccccc1)C(=O)N[C@@H](Cc1ccc(O)cc1)C(=O)N1CCC[C@H]1C(=O)N[C@@H](CCCNC(=N)N)C(=O)N[C@@H](CCCCN)C(=O)NC(CC)(CC)C(=O)N[C@@H](CCCNC(=N)N)C(N)=O` [compound 201] (HELM PEPTIDE1{[ac].M.R.W.Q.E.M.G.Y.I.F.Y.P.R.K.[CCC(CC)(N[*:1])C(=O)[*:2]].R.[am]}$$$$V2.0): 92.8%. In the case of H-MRWQEMEYIFYPRKLR-OH [compound 173], the “Free Fatty Acid Levels in 3T3-L1 Adipocytes Expressed as a Percent of Isoproterenol Control: Percent of Control Value” came out at 43.9%.
